Source: publication PMC7519686, “Engineering and application of a biosensor with focused ligand specificity” (Nature Communications, 2020)

How the values were obtained:
Format in all cases: binding
[1] = target: T1, LysG-A219L (Corynebacterium glutamicum, UniProt P94632, A219L); test: ITC with purified protein (fixed stoichiometry of two ligands per tetramer)
[2] = target: T2, LysG (Corynebacterium glutamicum, UniProt P94632); test: X-ray co-crystal structure ([…] Å) and ITC; set-up: full-length LysG
T2 sequence (P94632 1-290): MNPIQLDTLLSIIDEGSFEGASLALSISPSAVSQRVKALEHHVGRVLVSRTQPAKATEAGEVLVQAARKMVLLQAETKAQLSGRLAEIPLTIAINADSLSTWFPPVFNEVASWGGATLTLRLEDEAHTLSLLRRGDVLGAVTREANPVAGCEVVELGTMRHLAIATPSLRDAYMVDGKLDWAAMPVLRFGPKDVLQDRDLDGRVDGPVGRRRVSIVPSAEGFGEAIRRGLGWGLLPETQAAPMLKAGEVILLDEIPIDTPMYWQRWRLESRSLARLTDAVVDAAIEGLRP

[3] = target: T2, LysG; test: ITC with purified protein
[4] = target: T1, LysG-A219L; test: ITC with purified protein
[5] = target: T2, LysG; test: ITC with purified protein (fixed stoichiometry of two ligands per tetramer)

Structure (SMILES): N=C(N)NCCC[C@H](N)C(=O)O [L-arginine]
- Kd [1]: 9620 µM
- Kd [2]: 1150 µM

Structure (SMILES): N[C@@H](Cc1c[nH]cn1)C(=O)O [L-histidine]
- Kd [3]: 16 µM
- Kd [4]: 20.7 µM

Structure (SMILES): NCCCC[C@H](N)C(=O)O [L-lysine]
- Kd [5]: 3290 µM
